Measurements: US9254283B2, “Therapeutic agent for migraine” (priority 2008, dated 2016)

Test system: cerebral vascular smooth muscle (basilar arteries)
Assay: Cerebral vasoconstriction effect: inhibition of adenosine-induced relaxation of isolated basilar artery rings
Conditions: dog basilar artery rings
Procedure: Dogs were anesthetized by intravenous administration of sodium pentobarbital, exsanguinated by decapitation and subjected to craniotomy. The basilar arteries were removed, and ring specimens of cerebral vascular smooth muscle measuring about 2 mm in width were prepared. Each ring specimen was fixed to an injection needle (cut into a 2-mm piece) with a silk thread. The injection needle was fixed to a holder installed in an Easy Magnus Device (Model: UC-2; Kishimoto Medical Instruments), and the specimen was allowed to stabilize for 60 minutes or more under a resting tension of 0.2 g (1.96 mN) in a 37° C. nutritive solution. […] Separately, in the same manner as in the test compound-administered group, dimethylsulfoxide alone was cumulatively added in place of the test compound (solvent-added group). The contraction of the cerebral vascular smooth muscle was then recorded on a recorder (Yokogawa Electric Corporation) from a transducer (Nihon Kohden Corporation) connected to the holder, to which the specimen was fixed, via a strain pressure amplifier (Nihon Kohden Corporation) (n=6). […] The cerebral vasoconstriction effect was determined as the percentage inhibition (%) of the adenosine-induced cerebral vascular smooth muscle relaxation, and comparison was made between the test compound-added group and the solvent-added group.

SMILES | suppressing effect on adenosine-induced cerebral vascular smooth muscle relaxation (in words) (versus solvent-added group) | inhibition at 0.01 µM (Canis lupus familiaris, 10 nmol/L, n=6, solvent-added group 0.6±7.6%, read-out: percentage inhibition of the adenosine-induced cerebral vascular smooth muscle relaxation) [%]
CC(C)(O)CCN1CCN(c2cc3nc(-c4ccco4)nn3c(N)n2)CC1 [Compound (IB)] | confirmed | –
Cc1ccc(C(=O)Nc2nc(-c3ccco3)c(C(=O)C3CCOCC3)s2)cn1 [(IIC)] | – | 97.4 ± 1.8
